Assay results from BindingDB's records for patent US12435089 (Tyk Medicines, 2025).

What was measured:
Test in all cases: Inhibitory Activity of the Compounds of the Invention Against ROS1, NTRK and ALK and their Drug-Resistant Kinases
[1] = target: Proto-oncogene tyrosine-protein kinase ROS (Homo sapiens, UniProt P08922)
Procedure: (§1) Inhibition of protein kinase activity by compounds was carried out on the Radio-tagged HotSpot kinase experimental platform of Reaction Biology Corporation. Fresh reaction solution (20 mM HEPESpH 7.5, 10 mM MgCl2, 1 mM EGTA, 0.02% Brij35, 0.02 mg/ml BSA, 0.1 mM Na3VO4, 2 mM DTT, 1% DMSO) containing corresponding substrates was prepared, cofactor and kinase to be tested were added into the above solution and mixed gently. Echo550 pipetting system was used to add the test compound DMSO solution to each well (the blank control group was added with the corresponding volume of DMSO), then 33P-ATP (with a final specific activity of 0.01 μCi/μL) was added to start the reaction. The reaction solution was incubated at room temperature for 120 minutes.

[2] = target: High affinity nerve growth factor receptor (Homo sapiens, UniProt P04629)
Procedure: as §1

[3] = target: NT-3 growth factor receptor (Homo sapiens, UniProt Q16288)
Procedure: as §1

Measured: IC50

Sequence of Proto-oncogene tyrosine-protein kinase ROS (P08922 whole entry): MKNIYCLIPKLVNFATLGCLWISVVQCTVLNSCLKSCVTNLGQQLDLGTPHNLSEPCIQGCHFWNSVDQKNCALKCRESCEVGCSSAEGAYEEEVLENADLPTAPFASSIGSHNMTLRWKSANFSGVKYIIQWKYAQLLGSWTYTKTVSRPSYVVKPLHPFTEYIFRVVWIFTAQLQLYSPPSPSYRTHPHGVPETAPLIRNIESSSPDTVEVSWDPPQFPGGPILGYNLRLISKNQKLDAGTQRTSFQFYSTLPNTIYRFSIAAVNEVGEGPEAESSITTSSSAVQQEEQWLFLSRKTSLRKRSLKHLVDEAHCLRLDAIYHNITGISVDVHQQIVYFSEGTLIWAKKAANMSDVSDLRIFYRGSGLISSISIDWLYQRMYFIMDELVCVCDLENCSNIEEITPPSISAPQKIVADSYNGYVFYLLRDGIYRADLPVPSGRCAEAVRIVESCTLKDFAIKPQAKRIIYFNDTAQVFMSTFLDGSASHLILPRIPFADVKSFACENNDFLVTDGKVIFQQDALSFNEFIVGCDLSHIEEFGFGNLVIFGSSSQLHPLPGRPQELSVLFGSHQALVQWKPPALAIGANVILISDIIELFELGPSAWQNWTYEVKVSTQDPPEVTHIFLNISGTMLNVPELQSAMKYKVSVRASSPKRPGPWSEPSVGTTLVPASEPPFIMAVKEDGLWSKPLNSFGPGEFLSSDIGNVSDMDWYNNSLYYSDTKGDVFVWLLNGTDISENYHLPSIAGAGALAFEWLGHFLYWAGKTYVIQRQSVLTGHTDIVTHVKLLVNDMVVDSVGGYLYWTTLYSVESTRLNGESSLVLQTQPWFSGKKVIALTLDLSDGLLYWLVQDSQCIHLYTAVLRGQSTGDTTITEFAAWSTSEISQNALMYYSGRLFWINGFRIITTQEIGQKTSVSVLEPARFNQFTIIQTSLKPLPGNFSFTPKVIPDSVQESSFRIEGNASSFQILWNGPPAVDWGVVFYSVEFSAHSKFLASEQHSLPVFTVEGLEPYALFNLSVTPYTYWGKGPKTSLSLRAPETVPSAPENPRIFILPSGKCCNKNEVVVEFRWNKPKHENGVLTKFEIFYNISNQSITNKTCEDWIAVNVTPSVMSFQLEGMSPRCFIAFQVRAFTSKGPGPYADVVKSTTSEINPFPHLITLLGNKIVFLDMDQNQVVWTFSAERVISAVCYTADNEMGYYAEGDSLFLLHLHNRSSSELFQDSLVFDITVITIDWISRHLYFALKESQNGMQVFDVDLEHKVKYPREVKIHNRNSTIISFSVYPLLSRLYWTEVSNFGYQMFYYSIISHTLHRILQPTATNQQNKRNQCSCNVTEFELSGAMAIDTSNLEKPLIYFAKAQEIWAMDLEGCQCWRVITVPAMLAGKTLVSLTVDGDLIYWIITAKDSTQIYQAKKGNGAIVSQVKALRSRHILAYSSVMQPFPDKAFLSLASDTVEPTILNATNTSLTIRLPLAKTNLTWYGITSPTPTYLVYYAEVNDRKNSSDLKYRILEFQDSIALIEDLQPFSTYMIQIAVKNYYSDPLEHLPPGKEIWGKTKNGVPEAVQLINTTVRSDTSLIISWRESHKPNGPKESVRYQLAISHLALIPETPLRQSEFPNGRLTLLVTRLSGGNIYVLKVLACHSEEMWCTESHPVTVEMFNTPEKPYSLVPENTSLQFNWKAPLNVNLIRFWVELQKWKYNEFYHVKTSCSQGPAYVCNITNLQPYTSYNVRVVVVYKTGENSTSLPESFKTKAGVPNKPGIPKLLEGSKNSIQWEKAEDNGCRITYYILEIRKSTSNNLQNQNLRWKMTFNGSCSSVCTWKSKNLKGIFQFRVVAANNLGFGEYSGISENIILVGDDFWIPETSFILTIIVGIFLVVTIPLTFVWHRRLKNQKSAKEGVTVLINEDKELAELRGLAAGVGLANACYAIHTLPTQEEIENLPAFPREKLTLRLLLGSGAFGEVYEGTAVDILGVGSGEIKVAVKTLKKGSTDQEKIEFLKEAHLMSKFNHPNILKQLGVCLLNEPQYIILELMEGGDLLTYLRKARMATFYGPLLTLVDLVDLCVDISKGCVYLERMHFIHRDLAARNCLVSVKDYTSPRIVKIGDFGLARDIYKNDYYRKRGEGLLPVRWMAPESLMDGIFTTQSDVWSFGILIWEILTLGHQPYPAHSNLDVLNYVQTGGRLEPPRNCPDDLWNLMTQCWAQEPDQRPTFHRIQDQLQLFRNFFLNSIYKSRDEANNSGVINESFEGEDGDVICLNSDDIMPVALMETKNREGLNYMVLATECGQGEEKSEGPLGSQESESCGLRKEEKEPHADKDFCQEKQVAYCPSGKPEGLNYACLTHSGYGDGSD
Sequence of High affinity nerve growth factor receptor (P04629 whole entry): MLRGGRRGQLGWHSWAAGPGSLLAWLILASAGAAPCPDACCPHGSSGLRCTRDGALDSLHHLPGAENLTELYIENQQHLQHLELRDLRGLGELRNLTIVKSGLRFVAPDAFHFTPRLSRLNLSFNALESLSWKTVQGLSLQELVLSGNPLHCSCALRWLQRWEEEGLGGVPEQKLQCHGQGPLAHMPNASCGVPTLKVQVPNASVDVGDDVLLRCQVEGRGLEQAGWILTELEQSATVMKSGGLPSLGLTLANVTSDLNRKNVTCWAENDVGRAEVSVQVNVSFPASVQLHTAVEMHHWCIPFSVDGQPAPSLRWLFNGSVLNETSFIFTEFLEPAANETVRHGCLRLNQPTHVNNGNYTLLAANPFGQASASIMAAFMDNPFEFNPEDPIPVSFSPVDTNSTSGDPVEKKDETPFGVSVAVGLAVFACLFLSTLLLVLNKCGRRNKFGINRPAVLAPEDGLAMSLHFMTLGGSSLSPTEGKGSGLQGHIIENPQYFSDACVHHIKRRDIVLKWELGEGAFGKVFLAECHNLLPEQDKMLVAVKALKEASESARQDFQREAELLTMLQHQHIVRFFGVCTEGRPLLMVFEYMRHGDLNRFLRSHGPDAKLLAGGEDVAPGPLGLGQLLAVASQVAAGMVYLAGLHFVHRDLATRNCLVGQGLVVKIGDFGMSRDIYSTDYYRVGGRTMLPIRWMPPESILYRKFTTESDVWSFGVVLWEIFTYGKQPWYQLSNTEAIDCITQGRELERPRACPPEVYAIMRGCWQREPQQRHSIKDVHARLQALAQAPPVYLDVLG
Sequence of NT-3 growth factor receptor (Q16288 whole entry): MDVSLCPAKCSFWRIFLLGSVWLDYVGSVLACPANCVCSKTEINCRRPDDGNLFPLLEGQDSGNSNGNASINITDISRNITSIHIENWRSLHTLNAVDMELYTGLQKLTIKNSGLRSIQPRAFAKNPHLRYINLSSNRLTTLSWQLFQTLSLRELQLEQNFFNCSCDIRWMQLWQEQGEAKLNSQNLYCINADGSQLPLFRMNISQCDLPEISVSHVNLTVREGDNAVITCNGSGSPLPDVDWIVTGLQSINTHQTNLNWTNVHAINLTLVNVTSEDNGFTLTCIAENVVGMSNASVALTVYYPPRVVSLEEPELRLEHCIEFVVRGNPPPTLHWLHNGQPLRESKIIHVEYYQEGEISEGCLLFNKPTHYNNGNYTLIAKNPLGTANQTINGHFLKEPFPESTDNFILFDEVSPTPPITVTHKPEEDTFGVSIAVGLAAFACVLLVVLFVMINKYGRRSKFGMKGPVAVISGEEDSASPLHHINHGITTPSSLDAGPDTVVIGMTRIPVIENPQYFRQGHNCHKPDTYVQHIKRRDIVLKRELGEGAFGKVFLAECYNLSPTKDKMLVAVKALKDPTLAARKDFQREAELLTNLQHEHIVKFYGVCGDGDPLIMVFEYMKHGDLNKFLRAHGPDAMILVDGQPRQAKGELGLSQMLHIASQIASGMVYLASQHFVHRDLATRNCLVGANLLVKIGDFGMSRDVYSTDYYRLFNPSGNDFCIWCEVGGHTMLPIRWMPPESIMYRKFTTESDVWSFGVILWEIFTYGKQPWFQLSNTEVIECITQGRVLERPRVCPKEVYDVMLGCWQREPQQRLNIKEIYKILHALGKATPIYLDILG

C[C@@H](Oc1ccn2ncc(C3=NOC(C)(C)N3)c2n1)c1c(Cl)ccc(F)c1Cl [US12435089, Example 9]
< 0.5 nM: all assays above
